Laboratory results as given in patent US11286236B2, “Compound, agent and composition for the suppression of cancer growth” (Vector Vitale IP LLC, priority 2018, dated 2022).
Counter-ions that a name gives are not always drawn.

What was measured:
[1] = tested on: Mouse melanoma cells (MM-4 cell line); test: Cytotoxic effect of E2+85Rbe and antitumor drug added 24 hours apart; type: cell-based
Description: The effectiveness of the method of the invention that comprises administering antitumor drugs and ^85Rb-enriched rubidium salt of N-benzoyl-N-(4-toluenesulfonyl)-o-phenylenediamine of formula I was measured in the experiment. […] Both orders were tested: AD administered first (Scheme 2, below), and AD administered second (Scheme 1, below).
Materials and Methods: Mouse melanoma cells (MM-4 cell line) were seeded into 96-well plates (TPP, Italy), in DMEM (Biowest, France) supplemented with 10% newborn calf serum (Biowest, France) and […] gentamicin (Sigma, USA) at a seeding density of 5×10^4 cells/ml. The cells were then cultured in an incubator with a humidified atmosphere of 5% CO2 in air at 37° C. The experiment was carried out in accordance with the three schemes given below. The experiment was started 24 hours after the cells were seeded. For this purpose, the agents used in the method were introduced into the appropriate wells. The following schemes of introduction were used for the study:
Scheme 1) The ^85Rb-enriched rubidium salt of N-benzoyl-N′-(4-toluenesulfonyl)-o-phenylenediamine of formula I was introduced at the first stage in the following amounts: 2.0 μg/ml, 1.0 μg/ml, 0, 5 μg/ml, and one antitumor drug was introduced at the second stage (after 24 hours).
Scheme 2) An AD was introduced at the first stage at doses as indicated in Scheme 1 above and ^85Rb-enriched rubidium salt of N-benzoyl-N′-(4-toluenesulfonyl)-o-phenylenediamine of formula I was introduced at the second stage (after 24 hours) at the following doses: 2.0 μg/ml, 1.0 μg/ml, 0.5 μg/ml.
After all the agents were added into the wells, the cells were incubated at 37° C. and 5% CO2 for another 72 hours (96 hours in total after the cells were seeded).
As in example 2, the cytotoxic effect was determined as the percentage of the cell number with respect to the control after their treatment in accordance with the claimed method. The effects of the drugs were evaluated visually, which allowed us to examine the morphological pattern of the cytotoxic action of the drugs, and by staining the cells with crystal violet, followed by OD measurement at an excitation wavelength of 540 nm using a MultiSkan microplate spectrophotometer.
The effects of the complex action of various doses of the investigated substances were evaluated using the concept of synergistic, additive and antagonistic effects of the drugs, as for Example 2, and calculating CI as described in Example 2.
Each table sets forth the % of MM-4 cells that survived in the presence of the drug doses indicated in the in vitro experiments described above, expressed as a percentage of the cells in the control wells.

[2] = tested on: Mouse melanoma cells (MM-4 cell line); test: Cytotoxic effect on melanoma cells, single agents (crystal violet); type: cell-based
Description: Materials and Methods: Mouse melanoma cells (MM-4 cell line) were seeded into 96-well plates (TPP, Italy) in DMEM (High Glucose w/L-Glutamine w/o Sodium Pyruvate; Biowest, France) supplemented with 10% newborn calf serum (Biowest, France) and […] gentamicin (Sigma, USA) at a seeding density of 5×10^4 cells/ml. The cells were then cultured in an incubator with a humidified atmosphere of 5% CO2 in air at 37° C. 24 hours after the cells were seeded, a compound according to the invention that comprises ^85Rb-enriched rubidium salt of N-benzoyl-N′-(4-toluenesulfonyl)-o-phenylenediamine of formula I was added into the appropriate wells. ^85Rbe-E2 was used at the following doses: 2.0 μg/ml, 1.0 μg/ml, 0.5 μg/ml (each is the final concentration of ^85Rbe after addition to the well). The cytotoxic effect was determined by counting the number of live cells observed after treatment, expressed as a percentage of the number of live cells observed/counted in the control (cells seed in the well and not treated). Control cells were not treated. For each concentration, the experiment was carried out twice. The effects of the drugs were evaluated visually, which allowed us to examine the morphological pattern of the cytotoxic action of the drugs, and by staining the cells with crystal violet, followed by OD measurement at an excitation wavelength of 540 nm using a MultiScan spectrophotometer. For comparison, a parallel experiment was carried out with the use of a known antitumor drug cisplatin and a compound of rubidium salt of N-benzoyl-N′-(4-toluenesulfonyl)-o-phenylenediamine of formula I which comprised a naturally-abundant mixture of isotopes of rubidium instead of being enriched for the ^85Rb isotope.

## Cc1ccc(S(=O)(=O)Nc2ccccc2NC(=O)c2ccccc2)cc1 [^85Rbe − E2, ^85Rb-enriched rubidium salt of N-benzoyl-N′-(4-toluenesulfonyl)-o-phenylenediamine]
[1]; E2+85Rbe 0.5 μg/ml alone, first stage
  % surviving MM-4 cells: 32.3 ± 0.7%
[1]; E2+85Rbe 0.5 μg/ml alone, second stage (24 h later)
  % surviving MM-4 cells: 51 ± 1%
[1]; E2+85Rbe 1 μg/ml alone, first stage
  % surviving MM-4 cells: 8.3 ± 0.5%
[1]; E2+85Rbe 1 μg/ml alone, second stage (24 h later)
  % surviving MM-4 cells: 19 ± 0.5%
[1]; E2+85Rbe 2 μg/ml alone, first stage
  % surviving MM-4 cells: 6.4 ± 0.3%
[1]; E2+85Rbe 2 μg/ml alone, second stage (24 h later)
  % surviving MM-4 cells: 17.7 ± 0.8%
[2]; 0.5 μg/ml of rubidium (85Rbe or Rb)
  Number of cells after their treatment with the drug, %: 32.3 ± 0.7%
[2]; 1.0 μg/ml of rubidium (85Rbe or Rb)
  Number of cells after their treatment with the drug, %: 8.3 ± 0.5%
[2]; 2.0 μg/ml of rubidium (85Rbe or Rb)
  Number of cells after their treatment with the drug, %: 6.4 ± 0.3%

## N.N.[Cl][Pt][Cl] [cisplatin]
[1]; cisplatinum 0.5 μg/ml alone, first stage
  % surviving MM-4 cells: 84 ± 3.3%
[1]; cisplatinum 0.5 μg/ml alone, second stage
  % surviving MM-4 cells: 84.6 ± 3.5%
[1]; cisplatinum 1 μg/ml alone, first stage
  % surviving MM-4 cells: 51.7 ± 6.9%
[1]; cisplatinum 1 μg/ml alone, second stage
  % surviving MM-4 cells: 70 ± 3.6%
[1]; cisplatinum 2.5 μg/ml alone, first stage
  % surviving MM-4 cells: 24.6 ± 5.2%
[1]; cisplatinum 2.5 μg/ml alone, second stage
  % surviving MM-4 cells: 34 ± 2.6%
[1]; cisplatinum 5 μg/ml alone, first stage
  % surviving MM-4 cells: 13.8 ± 1.2%
[1]; cisplatinum 5 μg/ml alone, second stage
  % surviving MM-4 cells: 35.2 ± 3.3%
[1]; cisplatinum 10 μg/ml alone, first stage
  % surviving MM-4 cells: 2.6 ± 1.4%
[1]; cisplatinum 10 μg/ml alone, second stage
  % surviving MM-4 cells: 19.4 ± 0.9%
[2]; cisplatin 0.5 μg/ml
  Number of cells after their treatment with the drug, %: 84 ± 3.3%
[2]; cisplatin 1.0 μg/ml
  Number of cells after their treatment with the drug, %: 51.7 ± 6.9%
[2]; cisplatin 2.5 μg/ml
  Number of cells after their treatment with the drug, %: 24.6 ± 5.2%
[2]; cisplatin 5 μg/ml
  Number of cells after their treatment with the drug, %: 13.8 ± 1.2%
[2]; cisplatin 10 μg/ml
  Number of cells after their treatment with the drug, %: 2.6 ± 1.4%
